In ChEMBL document CHEMBL5543127, “Design, Synthesis, and Biological Evaluation of 2-Phenoxyalkylhydrazide Benzoxazole Derivatives as Quorum Sensing Inhibitors with Strong Antibiofilm Effect” (J Med Chem, 2024):
Converted amounts (≈) assume the structure as drawn. The source made the active and inactive calls. The rule behind the calls is not given here.

Key:
Bacillus subtilis = test: Anti-microbial activity against Bacillus subtilis ATCC9372 incubated for 20 hrs By CLSI based micro-dilution method; format: functional
Bacillus pumilus = test: Anti-microbial activity against Bacillus pumilus CMCC63202 incubated for 20 hrs By CLSI based micro-dilution method; format: functional
Staphylococcus aureus [1] = test: Anti-microbial activity against erythromycin-susceptible Staphylococcus aureus ATCC25923 incubated for 20 hrs By CLSI based micro-dilution method; format: functional
Staphylococcus aureus [2] = test: Anti-microbial activity against methicillin-resistant Staphylococcus aureus ATCC43300 incubated for 20 hrs By CLSI based micro-dilution method; format: functional
Pseudomonas aeruginosa [3] = test: Anti-microbial activity against penicillin-susceptible Pseudomonas aeruginosa 27853 incubated for 20 hrs By CLSI based micro-dilution method; format: functional
Escherichia coli = test: Anti-microbial activity against penicillin-susceptible Escherichia coli ATCC25922 incubated for 20 hrs By CLSI based micro-dilution method; format: functional
Pseudomonas aeruginosa [4] = test: Anti-microbial activity against Pseudomonas aeruginosa PAO1 incubated for 20 hrs By CLSI based micro-dilution method; format: functional
Pseudomonas aeruginosa [5] = test: Antibacterial activity against Pseudomonas aeruginosa PAO1 at logarithmic growth phase assessed as growth inhibition at 153.6 microg/ml measured upto 25 hrs by growth curve assay; format: functional, organism-based; settings: dose 153.6 µg/ml
Pseudomonas aeruginosa [6] = test: Inhibition of protease in logarithmic growth phase Pseudomonas aeruginosa PAO1 assessed as inhibition rate at 102.4 microg/ml measured after 32 hrs; settings: dose 102.4 µg/ml
Pseudomonas aeruginosa [7] = test: Antibacterial activity against Pseudomonas aeruginosa 27853 at logarithmic growth phase assessed as growth inhibition at 153.6 microg/ml measured upto 25 hrs by growth curve assay; format: functional, organism-based; settings: dose 153.6 µg/ml
[8] = Inhibition of quorum sensing system in Pseudomonas aeruginosa PAO1 at logarithmic growth period assessed as inhibition of pyocyanin production at 102.4 microg/ml incubated for 18 hrs by pyocyanin inhibition assay; settings: dose 102.4 µg/ml
Pseudomonas aeruginosa [9] = test: Antibiofilm activity against logarithmic growth phase Pseudomonas aeruginosa PAO1 assessed as inhibition of biofilm formation at 16 microg/ml incubated for 20 hrs by crystal violet staining based analysis; format: functional; settings: for inhibition: dose 16.0 µg/ml
Pseudomonas aeruginosa [10] = test: Antibiofilm activity against logarithmic growth phase Pseudomonas aeruginosa PAO1 assessed as inhibition of biofilm formation at 32 microg/ml incubated for 20 hrs by crystal violet staining based analysis; format: functional
Pseudomonas aeruginosa [11] = test: Induction of anti-bacterial effect in Pseudomonas aeruginosa PAO1 assessed as synergistic effect by measuring reduction in bacterial survival in presence of ciprofloxacin measured after 24 hrs incubation; format: functional, organism-based; settings: dose 8-128 µg/ml
Pseudomonas aeruginosa [12] = test: Induction of anti-bacterial effect in Pseudomonas aeruginosa PAO1 assessed as synergistic effect by measuring reduction in bacterial survival in presence of clarithromycin measured after 24 hrs incubation; format: functional, organism-based; settings: dose 8-128 µg/ml
Pseudomonas aeruginosa [13] = test: Anti-virulence activity against logarithmic growth phase Pseudomonas aeruginosa PAO1 assessed as inhibition of Rhamnolipid production at 102.4 microg/ml measured after 24 hrs; format: functional

| Compound | MIC (Bacillus subtilis) [µg/mL] | MIC (Bacillus pumilus) [µg/mL] | MIC (Staphylococcus aureus [1]) [µg/mL] | MIC (Staphylococcus aureus [2]) [µg/mL] | MIC (Pseudomonas aeruginosa [3]) [µg/mL] | MIC (Escherichia coli) [µg/mL] | MIC (Pseudomonas aeruginosa [4]) [µg/mL] | Activity (Pseudomonas aeruginosa [5]) | inhibition (Pseudomonas aeruginosa [6]) [%] | Activity (Pseudomonas aeruginosa [7]) | inhibition [8] | inhibition (Pseudomonas aeruginosa [9]) | inhibition at 32 µg/mL (Pseudomonas aeruginosa [10]) [%] | inhibition at 16 µg/mL (Pseudomonas aeruginosa [9]) [%] | Activity (Pseudomonas aeruginosa [11]) | Activity (Pseudomonas aeruginosa [12]) | inhibition at 102.4 µg/mL (Pseudomonas aeruginosa [13]) [%] |
| --- | --- | --- | --- | --- | --- | --- | --- | --- | --- | --- | --- | --- | --- | --- | --- | --- | --- |
| Cn1/c(=N/NC(=O)c2ccccc2F)sc2ccccc21 | > 512 | > 512 | > 512 | > 512 | > 512 | > 512 | > 512 | inactive | > 20 | inactive |  |  |  |  |  |  |  |
| COc1ccc(/C=N/Nc2nc3ccccc3o2)cc1OC | 512 (≈ 1720 µM) | 256 (≈ 861 µM) | 128 (≈ 431 µM) | 256 (≈ 861 µM) | > 512 | > 512 | > 512 | inactive | 21.9 | inactive | 40.3% | Active | > 25.4 |  |  |  |  |
| O=C(COc1ccc(Cl)cc1)NNc1nc2ccccc2o1 | 512 (≈ 1610 µM) | > 512 | 512 (≈ 1610 µM) | 256 (≈ 806 µM) | 512 (≈ 1610 µM) | > 512 | > 512 | inactive | 10 | inactive | 46.9% |  | > 25.4 | > 50 | Dose-Dependent Effect | Dose-Dependent Effect |  |
| O=C(CCCOc1ccc(Cl)cc1)NNc1nc2ccccc2o1 | 512 (≈ 1480 µM) | 512 (≈ 1480 µM) | 256 (≈ 740 µM) | 256 (≈ 740 µM) | 512 (≈ 1480 µM) | > 512 | > 512 |  | 30 |  | inactive | Active | > 25.4 |  | Dose-Dependent Effect | Dose-Dependent Effect |  |
| O=C(CCCCOc1ccc(F)cc1)NNc1nc2ccccc2s1 | > 512 | > 512 | > 512 | > 512 | > 512 | > 512 | > 512 | inactive |  | inactive | Active |  |  |  |  |  |  |
| Cc1cccc2sc(NNC(=O)CCCCOc3ccc(Cl)cc3)nc12 | 512 (≈ 1310 µM) | 512 (≈ 1310 µM) | > 512 | 512 (≈ 1310 µM) | > 512 | > 512 | > 512 |  |  |  | 42.2% |  |  |  |  |  |  |
| O=C(CCCOc1ccc(F)cc1)NNc1nc2ccccc2o1 | 512 (≈ 1550 µM) | 256 (≈ 777 µM) | 256 (≈ 777 µM) | 256 (≈ 777 µM) | 128 (≈ 389 µM) | > 512 | > 512 |  | 30 |  | inactive |  |  |  |  |  |  |
| O=C(COc1cccc(F)c1)NNc1nc2ccccc2o1 | 512 (≈ 1700 µM) | > 512 | 512 (≈ 1700 µM) | > 512 | 512 (≈ 1700 µM) | > 512 | 512 (≈ 1700 µM) | inactive | 10 | inactive | inactive |  |  |  |  |  |  |
| CCCC(=O)N/N=c1\sc2ccccc2n1C | > 512 | > 512 | 512 (≈ 2050 µM) | > 512 | > 512 | > 512 | > 512 |  |  |  | Active |  |  |  |  |  |  |
| CCCCC(=O)N/N=c1\sc2ccccc2n1C | > 512 | > 512 | 512 (≈ 1940 µM) | > 512 | > 512 | > 512 | > 512 |  |  |  | Active |  |  |  |  |  |  |
| CCCCCCCCC(=O)N/N=c1\sc2ccccc2n1C | > 512 | > 512 | > 512 | > 512 | > 512 | > 512 | > 512 |  |  |  | Active |  |  |  |  |  |  |
| CCCCCCCC(=O)N/N=c1\sc2ccccc2n1C | > 512 | > 512 | > 512 | > 512 | > 512 | > 512 | > 512 |  | > 20 |  |  |  |  |  |  |  |  |
| Cc1ccc(OCC(=O)NNc2nc3ccccc3o2)cc1 | 512 (≈ 1720 µM) | > 512 | 512 (≈ 1720 µM) | 512 (≈ 1720 µM) | 512 (≈ 1720 µM) | > 512 | > 512 | inactive | 13.9 | inactive | inactive |  |  |  |  |  |  |
| CCCCCCCCCCCC(=O)N/N=c1\sc2ccccc2n1C | > 512 | > 512 | > 512 | > 512 | > 512 | > 512 | > 512 | inactive | > 20 | inactive |  |  |  |  |  |  |  |
| COc1cccc(/C=N/Nc2nc3ccccc3o2)c1 | 512 (≈ 1920 µM) | 512 (≈ 1920 µM) | 128 (≈ 479 µM) | > 512 | > 512 | > 512 | > 512 | inactive |  | inactive | inactive |  |  |  |  |  |  |
| Cc1cccc(C(=O)NNc2nc3ccccc3s2)c1 | 512 (≈ 1810 µM) | 512 (≈ 1810 µM) | > 512 | > 512 | 512 (≈ 1810 µM) | > 512 | > 512 |  |  |  | 62.8% |  |  |  |  |  |  |
| Brc1ccccc1/C=N/Nc1nc2ccccc2o1 | 512 (≈ 1620 µM) | > 512 | 128 (≈ 405 µM) | 256 (≈ 810 µM) | > 512 | > 512 | > 512 |  |  |  | inactive |  |  |  |  |  |  |
| O=C1C=C(Br)/C(=C\Br)O1 | 64 (≈ 252 µM) | 256 (≈ 1010 µM) | 32 (≈ 126 µM) | 128 (≈ 504 µM) | 256 (≈ 1010 µM) | 256 (≈ 1010 µM) | 128 (≈ 504 µM) |  |  |  |  |  |  |  |  |  | 44.9 |
| Cn1/c(=N/NC(=O)c2cccc(Cl)c2)sc2ccccc21 | > 512 | > 512 | > 512 | > 512 | > 512 | > 512 | > 512 | inactive | > 20 | inactive | 40.1% | Active | > 25.4 |  |  |  |  |
| Cn1/c(=N/NC(=O)c2ccc(F)cc2)sc2ccccc21 | > 512 | > 512 | > 512 | > 512 | > 512 | > 512 | > 512 | inactive | > 20 | inactive |  |  |  |  |  |  |  |
| O=C(CCCCCOc1cccc(F)c1)NNc1nc2ccccc2o1 | 512 (≈ 1430 µM) | > 512 | 256 (≈ 716 µM) | > 512 | 512 (≈ 1430 µM) | > 512 | > 512 |  |  |  | inactive |  |  |  |  |  |  |
| Clc1cccc(/C=N/Nc2nc3ccccc3o2)c1 | 512 (≈ 1880 µM) | 512 (≈ 1880 µM) | 256 (≈ 942 µM) | > 512 | > 512 | > 512 | > 512 | inactive |  | inactive | inactive |  |  |  |  |  |  |
| O=C(CCCOc1cccc(F)c1)NNc1nc2ccccc2o1 | > 512 | > 512 | > 512 | > 512 | 512 (≈ 1550 µM) | > 512 | > 512 |  | 30 |  | inactive |  |  |  |  |  |  |
| Cc1cccc2sc(NNC(=O)CCCCOc3ccc(F)cc3)nc12 | 512 (≈ 1370 µM) | 512 (≈ 1370 µM) | 512 (≈ 1370 µM) | 512 (≈ 1370 µM) | > 512 | > 512 | > 512 | inactive | > 20 | inactive | Active | Active | > 25.4 |  | Dose-Dependent Effect | Dose-Dependent Effect |  |
| O=[N+]([O-])c1ccccc1/C=N/Nc1nc2ccccc2o1 | 512 (≈ 1810 µM) | 256 (≈ 907 µM) | 128 (≈ 453 µM) | 256 (≈ 907 µM) | > 512 | > 512 | 256 (≈ 907 µM) |  |  |  | inactive |  |  |  |  |  |  |
| COc1ccccc1/C=N/Nc1nc2ccccc2o1 | 512 (≈ 1920 µM) | > 512 | 256 (≈ 958 µM) | > 512 | > 512 | > 512 | > 512 | inactive |  | inactive | inactive |  |  |  |  |  |  |
| Clc1ccc(/C=N/Nc2nc3ccccc3o2)cc1 | 512 (≈ 1880 µM) | > 512 | 64 (≈ 236 µM) | 512 (≈ 1880 µM) | > 512 | > 512 | > 512 | inactive | 21.4 | inactive | inactive |  |  |  |  |  |  |
